Measurements from US8642352B2, “Methods and systems for detection of stoichiometry by Förster resonance energy transfer” (California Institute of Technology, priority 2009, dated 2014).

Experiments:
α4β2 nAChRs [1] = target: T1, α4β2 nAChRs (Mus musculus, UniProt O70174+Q9ERK7); details: α4:β2 cDNA ratio 1:1, exposed to nicotine, N2a cells
Experimental: (§1) In the experimental procedures illustrated in the present disclosure N2a cells were cultured at 37° C. in 95% air, 5% CO2 in medium composed of 44.5% DMEM, 44.5% OptiMEM1, 5% FBS, 100 I.U./ml penicillin and 100 μg/ml streptomycin. For all experiments, cells were plated onto poly-d-lysine coated 35 mm culture dishes with 14 mm glass bottoms. Transfections were performed using a modification of the manufacturer's Lipofectamine and Plus reagent protocol, resulting in non-saturated expression levels of nAChRs (Imoukhuede et al., 2009; Moss et al., 2009; Son et al., 2009). Nicotine at 1 μM final concentration was added to the appropriate dishes (nicotine was replenished with each media change).

ADNFLE α4β2 receptors = test system: ADNFLE α4β2 receptors
Experimental: The data on comparative stoichiometry from acceptor photobleach FRET, pixel-based FRET, and FIR measurements obtained from the experiments exemplified in the above examples and in the related figures can be summarized. In particular data gathered for the various subunit transfection ratios, various mutants, and various labeling strategies were analyzed by the relation in FIG. 3D or by Equations 13 and 14, as appropriate.
The effects of nicotine can also be summarized; in each case, the experiment compared incubation vs. saline.

α4β2 nAChRs [2] = target: α4β2 nAChRs (Homo sapiens, UniProt P17787+P43681); details: α4:β2 cDNA ratio 1:1, nicotine; Nelson et al., 2003; cited from earlier work
α4β2 receptors = α4β2 receptors (Mus musculus, UniProt O70174+Q9ERK7)
From the text: Cells were transfected with membrane-targeted mCherry, α4GFP, and unlabeled β2. Left panels, mCherry; middle panels, α4GFP; right panels, overlay. […] Scale bars, 5 μm.
All results from microscopy analysis will be correlated to receptor function using whole cell electrophysiology.

α4β2 nAChRs [3] = target: T1, α4β2 nAChRs
Experimental: (§2) Live cells are imaged using the Eclipse C1si laser scanning confocal microscope. Full emission spectra images are acquired in 5 nm bins between 450 nm and 610 nm, linearly unmixed using reference spectra from samples expressing solely the donor- or acceptor-tagged fusion constructs to unambiguously separate the donor and acceptor signal from each pixel of the spectral images. Transfections of cells expressing only the donor- or acceptor-tagged fusion protein are performed for every imaging session to control for pixel saturation and spectral bleedthrough (SBT). Where appropriate, non-fluorescent subunit cDNAs are included in the transfection to ensure the faithful expression and subcellular localization of the single fluorescent species. Control samples expressing only the donor-fused constructs are imaged with the appropriate laser line and unmixed with acceptor and donor emission spectra. The unmixed acceptor images are termed the FRETd channel, and the fluorescence intensity of each pixel is termed (IFRETd). The donor fluorophore images are the “Donor” channel and pixel intensities are described by Idonor. A montage of all the FRETd channel images and a second montage of all the Donor channel images are assembled and compiled into an image stack called the “Donor SBT stack” in the order FRETd channel, Donor channel.
(§3) Two spectral images of each cell expressing only the acceptor-fused constructs are acquired, the first excited by the donor specific laser line and the second with the acceptor specific laser line. The acceptor fluorophore signal is unmixed from each image.

α4 S248F β2 nAChR = α4 S248F β2 nAChR (Mus musculus, UniProt O70174+Q9ERK7, S282F); details: α4 subunits carrying S248F and XFP, nicotine 1 μM, 48 h
From the text: (§4) Live cells were imaged using the Eclipse C1si laser scanning confocal microscope according to procedures exemplified in Example 5. Full emission spectra images are acquired in 5 nm bins between 450 nm and 610 nm, linearly unmixed using reference spectra from samples expressing solely the donor- or acceptor-tagged fusion constructs to unambiguously separate the donor and acceptor signal from each pixel of the spectral images.
as §2, §3

α4β2 V287L nAChR [4] = target: T2, α4β2 V287L nAChR (Mus musculus, UniProt O70174+Q9ERK7, V287L); details: 1 μM nicotine for 48 h
From the text: as §4, §2, §3

WT α4β2 nAChRs = WT α4β2 nAChRs (Mus musculus, UniProt O70174+Q9ERK7)
Experimental: as §1
(§5) N2a cells were visualized at room temperature in extracellular buffer, 48 h after transfection. A series of lambda stack X-Y images were collected with the Eclipse C1si laser scanning confocal microscope according to procedures exemplified in Example 5. Dequenching of CFP fluorescence during incremental photobleaching of YFP was performed and analyzed as previously described (Nashmi et al., 2003; Drenan et al., 2008). FRET efficiency (E) was calculated according to (Equation 1).
(§6) IDA represents the normalized fluorescence intensity of the donor (100%) in the presence of non-bleached acceptor. ID represents the normalized fluorescence intensity of the donor following 100% photobleach of the acceptor. The ID value was extrapolated from a scatter plot of the percentage increase of donor intensity versus the percentage decrease of acceptor intensity for each cell (Nashmi et al., 2003).
(§7) A series of experiments were carried out with WT nAChR and ADFLE mutated nAChR were performed using image acquisition by FRET acceptor photobleach to detect nAChR stoichiometry before and after contact with nicotine.

α4β2 V287L nAChR [5] = target: T2, α4β2 V287L nAChR
Experimental: as §1, §5, §6, §7

T2 sequence (O70174 31-629): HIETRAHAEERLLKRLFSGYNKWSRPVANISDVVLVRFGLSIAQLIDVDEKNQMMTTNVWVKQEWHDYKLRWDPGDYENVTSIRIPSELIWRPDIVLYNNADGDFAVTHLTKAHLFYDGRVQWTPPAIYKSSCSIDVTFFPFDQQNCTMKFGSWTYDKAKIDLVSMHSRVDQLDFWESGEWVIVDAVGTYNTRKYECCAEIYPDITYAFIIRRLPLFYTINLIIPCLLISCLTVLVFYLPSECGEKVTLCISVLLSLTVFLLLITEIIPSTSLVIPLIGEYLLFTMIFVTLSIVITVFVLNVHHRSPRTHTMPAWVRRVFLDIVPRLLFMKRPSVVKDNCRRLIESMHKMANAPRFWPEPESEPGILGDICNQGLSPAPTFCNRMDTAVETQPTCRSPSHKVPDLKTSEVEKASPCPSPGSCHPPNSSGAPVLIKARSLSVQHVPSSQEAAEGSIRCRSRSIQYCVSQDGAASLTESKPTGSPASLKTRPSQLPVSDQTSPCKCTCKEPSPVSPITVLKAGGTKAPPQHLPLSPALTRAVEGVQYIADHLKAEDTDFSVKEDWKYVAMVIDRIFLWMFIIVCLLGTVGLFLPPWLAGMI
T2 sequence (Q9ERK7 26-501 V287L): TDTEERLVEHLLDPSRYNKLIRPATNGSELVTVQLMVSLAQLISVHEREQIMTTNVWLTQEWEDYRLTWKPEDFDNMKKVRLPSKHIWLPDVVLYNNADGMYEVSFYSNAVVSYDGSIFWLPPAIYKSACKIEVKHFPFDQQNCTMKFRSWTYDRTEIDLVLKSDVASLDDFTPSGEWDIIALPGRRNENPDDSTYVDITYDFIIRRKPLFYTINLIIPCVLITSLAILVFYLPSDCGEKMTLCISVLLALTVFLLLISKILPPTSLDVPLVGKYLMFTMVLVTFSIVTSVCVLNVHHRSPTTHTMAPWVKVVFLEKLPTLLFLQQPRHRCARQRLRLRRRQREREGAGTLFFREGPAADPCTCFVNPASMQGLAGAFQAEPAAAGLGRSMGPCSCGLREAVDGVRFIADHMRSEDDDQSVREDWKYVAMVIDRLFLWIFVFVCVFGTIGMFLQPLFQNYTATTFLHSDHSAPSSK
T1 sequence (O70174 31-629): as the sequence (O70174 31-629) above
T1 sequence (Q9ERK7 26-501): as the sequence (Q9ERK7 26-501 V287L) above, with L262V counted along it
Sequence of α4β2 receptors (O70174 31-629): as the sequence (O70174 31-629) above
Sequence of α4β2 receptors (Q9ERK7 26-501): as the sequence (Q9ERK7 26-501 V287L) above, with L262V counted along it
Sequence of WT α4β2 nAChRs (O70174 31-629): as the sequence (O70174 31-629) above
Sequence of WT α4β2 nAChRs (Q9ERK7 26-501): as the sequence (Q9ERK7 26-501 V287L) above, with L262V counted along it
Sequence of α4β2 nAChRs (Homo sapiens, UniProt P17787+P43681) (P43681 29-627 limits assumed): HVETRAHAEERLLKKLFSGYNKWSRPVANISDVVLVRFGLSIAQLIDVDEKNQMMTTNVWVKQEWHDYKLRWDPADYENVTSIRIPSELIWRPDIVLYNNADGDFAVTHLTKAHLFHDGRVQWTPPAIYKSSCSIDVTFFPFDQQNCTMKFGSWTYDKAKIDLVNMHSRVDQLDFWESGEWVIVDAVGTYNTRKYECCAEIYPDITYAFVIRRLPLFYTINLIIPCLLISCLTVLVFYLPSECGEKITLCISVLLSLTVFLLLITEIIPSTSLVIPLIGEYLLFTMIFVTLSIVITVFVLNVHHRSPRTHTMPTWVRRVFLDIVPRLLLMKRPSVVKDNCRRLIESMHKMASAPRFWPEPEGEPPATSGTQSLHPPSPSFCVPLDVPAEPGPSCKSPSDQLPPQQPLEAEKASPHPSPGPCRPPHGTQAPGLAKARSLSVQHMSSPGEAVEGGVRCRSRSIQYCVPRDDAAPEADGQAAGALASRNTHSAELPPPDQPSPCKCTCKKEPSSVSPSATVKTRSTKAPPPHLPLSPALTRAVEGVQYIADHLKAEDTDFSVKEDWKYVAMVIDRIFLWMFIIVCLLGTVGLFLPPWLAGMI
Sequence of α4β2 nAChRs (Homo sapiens, UniProt P17787+P43681) (P17787 26-502): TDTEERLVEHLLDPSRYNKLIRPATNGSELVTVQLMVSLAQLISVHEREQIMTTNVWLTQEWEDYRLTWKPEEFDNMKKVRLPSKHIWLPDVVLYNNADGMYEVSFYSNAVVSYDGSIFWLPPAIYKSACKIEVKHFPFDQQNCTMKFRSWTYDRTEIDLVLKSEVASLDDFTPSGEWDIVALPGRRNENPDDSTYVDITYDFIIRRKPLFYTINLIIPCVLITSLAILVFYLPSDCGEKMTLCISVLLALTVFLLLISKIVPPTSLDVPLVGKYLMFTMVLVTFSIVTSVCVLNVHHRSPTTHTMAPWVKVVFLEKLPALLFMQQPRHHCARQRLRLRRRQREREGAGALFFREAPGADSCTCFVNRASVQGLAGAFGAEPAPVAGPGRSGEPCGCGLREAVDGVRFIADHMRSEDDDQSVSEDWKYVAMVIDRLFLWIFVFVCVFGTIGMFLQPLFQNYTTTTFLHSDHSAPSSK
Sequence of α4 S248F β2 nAChR (O70174 31-629 S282F): as the sequence (O70174 31-629) above, with S252F counted along it
Sequence of α4 S248F β2 nAChR (Q9ERK7 26-501): as the sequence (Q9ERK7 26-501 V287L) above, with L262V counted along it

CN1CCCC1c1cccnc1 (centres unmarked) [Nicotine, nicotine]
Percent of (α4)3(β2)2 for WT nAChRs, FIR (α4β2 nAChRs [1]): 73%
Percentage of (α4)3(β2)2 ADNFLE receptors after nicotine incubation relative to saline incubation (ADNFLE α4β2 receptors; at least five experiments): 0.8
Ratio nicotine/saline of percentage of (α4)3(β2)2 ADNFLE receptors, all cases (ADNFLE α4β2 receptors; each of at least five experiments): < 1
Percent of (α4)3(β2)2 for WT nAChRs, Reported (α4β2 nAChRs [2]): 68 ± 5%
Upregulation at the plasma membrane by TIRFM (α4β2 receptors; 4 h of 1 μM nicotine exposure): sufficient to cause upregulation at the plasma membrane
α4GFP fluorescence in TIRF images (α4β2 receptors; incubation for 48 h in nicotine, α4GFP plus unlabeled β2): much brighter
Receptor population in the Golgi (α4β2 nAChRs [3]; trans-Golgi ROI (GalT-CFP), 1 μM nicotine, 4 h post-exposure): pure (α4)2(β2)3 receptor population
Duration of the stoichiometry switch post nicotine exposure (α4β2 nAChRs [3]; whole cell NFRET): at least 24 h
Receptor population expressing the high-sensitivity (α4)2(β2)3 stoichiometry (α4β2 nAChRs [3]; whole cell NFRET distribution, 4 h exposure to a saturating dose (1 μM) of nicotine): 80%
Shift of receptor population stoichiometry (α4 S248F β2 nAChR): shifted the population toward the (α4)2(β2)3 stoichiometry
α4 intersubunit FRET efficiency (α4β2 V287L nAChR [4]; α4XFP plus β2V287L): completely back to WT levels
Mean β2 intersubunit FRET efficiency (α4β2 V287L nAChR [4]; α4 plus β2(V287L)XFP): increased to a level even higher than the control cells
Shift of WT receptor stoichiometry on incubation in nicotine (WT α4β2 nAChRs; 1:1 cDNA α4XFP:β2 or α4:β2XFP, nicotine 1 μM): shifts the receptor population toward the (α4)2(β2)3 stoichiometry
Percent of (α4)3(β2)2 for WT nAChRs, FRET (WT α4β2 nAChRs; α4:β2 cDNA ratio 1:1, exposed to nicotine, N2a cells): 61 ± 6%
FRET efficiency of nicotine-treated versus unexposed cells (α4β2 V287L nAChR [5]; cells transfected with α4XFP β2 V287L): lower FRET efficiency
FRET efficiency after incubation in nicotine compared to control cells (α4β2 V287L nAChR [5]; cells transfected with α4 and β2 V287L XFP subunits): significantly higher
Shift in stoichiometry in the presence of nicotine (α4β2 V287L nAChR [5]; β2 V287L ADNFLE mutation): shift in stoichiometry towards (α4)2(β2)3
